Assay results taken from PubChem BioAssay (NCI).
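These data come from cells grown in 96-well plates and exposed to compound for 48 hours at five concentrations. TGI: total growth inhibition.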

Legend:
Experiment in all cases: NCI-60 cell line screen, 48 h
ACHN renal = system: ACHN renal
CCRF-CEM leukemia = system: CCRF-CEM leukemia
K-562 leukemia = system: K-562 leukemia
OVCAR-4 ovarian = system: OVCAR-4 ovarian
SK-MEL-2 melanoma = system: SK-MEL-2 melanoma
SW-620 colon = system: SW-620 colon
UACC-257 melanoma = system: UACC-257 melanoma
A498 renal = system: A498 renal
HOP-92 NSCLC = system: HOP-92 NSCLC
MCF7 breast = system: MCF7 breast
NCI/ADR-RES ovarian = system: NCI/ADR-RES ovarian

Row | Compound | TGI (ACHN renal) | TGI (CCRF-CEM leukemia) | TGI (K-562 leukemia) | TGI (OVCAR-4 ovarian) | TGI (SK-MEL-2 melanoma) | TGI (SW-620 colon) | TGI (UACC-257 melanoma) | TGI (A498 renal) | TGI (HOP-92 NSCLC) | TGI (MCF7 breast) | TGI (NCI/ADR-RES ovarian)
1 | [N-]=[N+]=Nc1cc(=O)oc2ccccc12 | > 100 µM | > 100 µM | > 100 µM | > 100 µM | > 100 µM | > 100 µM | > 100 µM |  |  |  | 
2 | COc1nc(N)c(C(=O)CCl)c(=O)n1C | 48.5 µM | 79.8 µM | 34.3 µM | 33.2 µM | 25.1 µM | 28.5 µM | 31.3 µM | 32.4 µM | 16.1 µM |  | 
3 | COc1ccc(CNc2nc(NCc3ccc(OC)c(OC)c3)nc(NC3CCCCC3)n2)cc1 | > 100 µM | > 100 µM | > 100 µM | > 100 µM | > 100 µM | > 100 µM | > 100 µM |  | > 100 µM | > 100 µM | 17.5 µM
4 | CC(N)Cc1ccc(C(=O)Cl)cc1 (stereo unspecified) | > 100 µM | > 100 µM | > 100 µM | > 100 µM | > 100 µM | > 100 µM | > 100 µM | > 100 µM |  |  | 
5 | CCNC(=S)N/N=C/c1cc([N+](=O)[O-])ccc1O | > 100 µM | 38.6 µM | > 100 µM | 72.8 µM | > 100 µM | > 100 µM | > 100 µM | 69.1 µM |  | 4.4 µM | 77.3 µM
6 | Clc1ccc(/C=C/c2nc3ccccc3s2)cc1Cl | > 100 µM | > 100 µM | > 100 µM | 37.3 µM |  |  | > 100 µM |  | 72.3 µM | > 100 µM | > 100 µM
7 | O=C1C(=Cc2ccc(O)cc2)N=C(c2ccccc2)N1n1c(-c2ccccc2)nc2ccccc2c1=O |  | > 100 µM |  |  |  | > 100 µM | > 100 µM |  |  | > 100 µM | 
8 | N#CN=C(N(Cc1ccccc1)Cc1ccccc1)N(Cc1ccccc1)Cc1ccccc1 | > 100 µM | > 100 µM | > 100 µM |  | > 100 µM | > 100 µM | > 100 µM | > 100 µM |  |  | 
9 | N.N.N.N.O=[N+]([O-])[O-].[Co+3].[N-]=[N+]=[N-].[N-]=[N+]=[N-] | > 100 µM | > 100 µM | > 100 µM | > 100 µM | > 100 µM | > 100 µM | > 100 µM | > 100 µM | > 100 µM |  | 
10 | C=C(C1=CC(=O)C(C)(C)O1)[C@@H]1CC=C([C@@H]2CC[C@H]3[C@@]2(C)CC[C@H]2C(C)(C)C(=O)[C@H](O)C[C@]32C)[C@H](O)O1 | 3.04 µM |  | 8.01 µM | 10.3 µM | 5.56 µM |  | 4.52 µM | 9.89 µM | 4.11 µM | 1.61 µM | 25.4 µM
11 | Cc1cn(C2CC(N(O)C(N)=O)C(CO)O2)c(=O)[nH]c1=O (stereo unspecified) | > 100 µM |  | > 100 µM | > 100 µM | > 100 µM | > 100 µM |  | > 100 µM | > 100 µM | > 100 µM | > 100 µM
12 | CCN(CC)CCC(=O)Nc1ccc2c(c1)C(=O)c1ccc(NC(=O)CCN(CC)CC)cc1C2=O | 16.3 µM | 18.5 µM | 14.8 µM | 18.9 µM | 19 µM | 6.93 µM | 29.7 µM | 17.8 µM | 30 µM |  | 
13 | COc1ccc(/C=C2\CCC(C)C3=C2NC(=S)NC3c2ccc(OC)c(OC)c2)cc1OC (stereo unspecified) | > 31.6 µM |  | > 31.6 µM | > 100 µM | > 31.6 µM | > 31.6 µM | > 31.6 µM | > 31.6 µM | > 100 µM | > 31.6 µM | > 100 µM
14 | O=C1CCC(=O)N1n1c(Cc2ccccc2)n[nH]c1=O | > 100 µM | > 100 µM | > 100 µM | > 100 µM | > 100 µM | > 100 µM | > 100 µM | > 100 µM |  | > 100 µM | > 100 µM
15 | CC1C=C(CCCCCCCCCCCC[C@@H](O)[C@@H]2CC[C@@H]([C@@H]3CC[C@@H](C(O)CCCCCCCCCCCCC4=C[C@H](C)OC4=O)O3)O2)C(=O)O1 (stereo partly specified) | > 100 µM | > 100 µM | > 100 µM |  | > 100 µM | > 100 µM | > 100 µM | > 100 µM | > 100 µM |  | 
16 | COC(=O)C1CCC(=O)N1C(c1ccccc1)c1ccc(OC)c(OC)c1 (stereo unspecified) | > 100 µM |  | > 100 µM | > 100 µM | > 100 µM | > 100 µM | > 100 µM | > 100 µM | > 100 µM | > 100 µM | > 100 µM
17 | CC(C)CCCCCCCCCCCCC(=O)NCC(=O)NC1C(C)OC(Nc2ncnc3c2ncn3C)C(O)C1O (stereo unspecified) |  | > 100 µM | > 100 µM | > 100 µM | > 100 µM | > 100 µM | > 100 µM | 24.2 µM | 8.41 µM | > 100 µM | > 100 µM
18 | CC(=O)Nc1ccc(-c2nnc(SCC(=O)Nc3ccc([N+](=O)[O-])cc3)o2)cc1 | 28.7 µM | > 100 µM | > 100 µM | 26.3 µM | 33.3 µM | 29.7 µM | 24.7 µM |  | 37.7 µM |  | 
19 | C[n+]1c2ccccc2c(/C=N\NS(=O)(=O)c2ccc(O)c(C(=O)O)c2)c2ccccc21 | > 100 µM | > 100 µM | > 100 µM | > 100 µM | > 100 µM | > 100 µM |  | > 100 µM | > 100 µM |  | 
20 | CC[C@@]1(O)C(=O)OCc2c1cc1n(c2=O)Cc2c-1nc1ccccc1c2/C=N\NC(=O)CN |  |  | > 100 µM | > 100 µM | > 100 µM | > 100 µM | > 60.8 µM | 3.76 µM | 21.8 µM | > 64 µM | > 76.5 µM
21 | CCOC(=O)c1c2ccccc2n2c(N)c(C(N)=O)nnc12 | 26.6 µM | > 100 µM | > 100 µM | > 100 µM | > 100 µM | > 100 µM | > 100 µM | 71 µM |  | > 100 µM | > 100 µM
22 | COc1ccc(C2c3cc4c(cc3OC(NNS(=O)(=O)c3ccc(C)cc3)C2C)OCO4)cc1 (stereo unspecified) | > 100 µM | > 100 µM | > 100 µM |  | > 100 µM | > 100 µM | > 100 µM | > 100 µM | 85.3 µM | > 100 µM | 
